Tests used:
KRAS G12D = KRAS G12D (Homo sapiens, UniProt P01116, G12D); assay: KRAS G12D LoEnz Biochemical Assay, BODIPY-GDP Exchange TR-FRET (Example 500); details: BODIPY-GDP exchange, read-out: KRas (G12D) GDP HTRF IC50
Experimental: Example 500: KRAS G12D LoEnz Biochemical Assay, BODIPY-GDP Exchange TR-FRET. Biochemical compound potencies are assessed by evaluating inhibition of SOS1-mediated nucleotide exchange in KRAS G12D. In this assay, the SOS1-promoted exchange of fluorescently-labeled GDP (BOPIDY-GDP) is monitored by time-resolved fluorescence resonance energy transfer (TR-FRET). Compounds solubilized in DMSO are dispensed as concentration series into 384-well white assay plates. A preformed complex of biotin-tagged recombinant human KRAS (0.06 nM mutant G12D) and 0.06 nM terbium-labeled streptavidin (CisBIO) prepared in 10 uL/well assay buffer (20 mM HEPES, pH 7.5, 50 mM NaCl, 10 mM MgCl2, 0.01% Tween-20 and 1 mM dithiothreitol) is added and allowed to incubate for 10-minutes at room temperature. The reaction is initiated with the addition of 5 uL 300 nM recombinant human SOS1 and 300 nM BODIPY-GDP in assay buffer. After a 120-minute incubation, the fluorescence is measured with excitation at 337 nm and emission at 490 and 520 nm. The TR-FRET ratio is determined as the fluorescence at 520 nm divided by the fluorescence at 490 nm multiplied by 10,000. The results are normalized to percent inhibition based on control samples: DMSO (0% inhibition) and control compound at a concentration that inhibits completely (100% inhibition). The normalized TR-FRET results are plotted against compound concentration, and the data are fit to a 4-parameter Hill equation to determine the IC50 values.

KRAS WT = KRAS WT (Homo sapiens, UniProt P01116); assay: KRAS WT Biochemical Assay, BODIPY-GDP Exchange TR-FRET (Example 502; 0.06 nM KRAS WT, 15 nM GDP, 300 nM SOS1, 120-minute incubation); details: SOS1-mediated BODIPY-GDP exchange, read-out: KRas HTRF IC50
Experimental: Example 502: KRAS WT Biochemical Assay, BODIPY-GDP Exchange TR-FRET. Biochemical compound potencies are assessed by evaluating inhibition of SOS1-mediated nucleotide exchange in KRAS WT. In this assay, the SOS1-promoted exchange of fluorescently-labeled GDP (BOPIDY-GDP) is monitored by time-resolved fluorescence resonance energy transfer (TR-FRET). Compounds solubilized in DMSO are dispensed as concentration series into 384-well white assay plates. A preformed complex of 0.06 nM biotin-tagged recombinant human KRAS WT, 15 nM GDP and 0.06 nM terbium-labeled streptavidin (CisBIO) prepared in 10 uL/well assay buffer (20 mM HEPES, pH 7.5, 50 mM NaCl, 10 mM MgCl2, 0.01% Tween-20 and 1 mM dithiothreitol) is added and allowed to incubate for 10-minutes at room temperature. The reaction is initiated with the addition of 5 uL 300 nM recombinant human SOS1 and 300 nM BODIPY-GDP in assay buffer. After a 120-minute incubation, the fluorescence is measured with excitation at 337 nm and emission at 490 and 520 nm. The TR-FRET ratio is determined as the fluorescence at 520 nm divided by the fluorescence at 490 nm multiplied by 10,000. The results are normalized to percent inhibition based on control samples: DMSO (0% inhibition) and control compound at a concentration that inhibits completely (100% inhibition). […]

[1] = tested on: HPAC (homozygous mutant KRAS G12D human pancreatic cell line); assay: KRAS 3D-Cell Proliferation Assay, HPAC (Example 503); assay type: cell-based; details: Homo sapiens, HPAC, 168 h, HPAC 3D culture, 7 days, CellTiter-Glo 3D; read-out: Prolif HPAC 3D ATP IC50
In short: (§1)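 IC50 values derive from 4-parameter Hill fits of normalized luminescence, where DMSO sets 0% and 1 μM staurosporine 100% inhibition. 3D cultures in RPMI-1640 with 10% fetal bovine serum were exposed to compound for 7 days before CellTiter-Glo 3D lysis.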

[2] = tested on: H1975 (KRAS wild type human lung adenocarcinoma cell line); assay: KRAS 3D-Cell Proliferation Assay, H1975 (Example 503); assay type: cell-based; details: Homo sapiens, NCI-H1975, 168 h, H1975 3D culture, 7 days, CellTiter-Glo 3D; read-out: Prolif H1975 3D ATP IC50
In short: as §1

[3] = tested on: AsPC-1 (homozygous mutant KRAS G12D human pancreatic cell line); assay: KRAS 3D-Cell Proliferation Assay, AsPC-1 (Example 503); assay type: cell-based; details: Homo sapiens, ASPC1, 168 h, AsPC-1 3D culture, 7 days, CellTiter-Glo 3D; read-out: Prolif AsPC-1 3D ATP IC50
In short: as §1

Chain of KRAS WT (P01116 1-188 isoform P01116-2): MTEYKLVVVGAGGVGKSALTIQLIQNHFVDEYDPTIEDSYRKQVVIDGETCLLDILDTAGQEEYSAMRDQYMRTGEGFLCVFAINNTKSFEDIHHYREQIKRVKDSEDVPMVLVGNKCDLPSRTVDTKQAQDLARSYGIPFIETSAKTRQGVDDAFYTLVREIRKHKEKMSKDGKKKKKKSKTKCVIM
Chain of KRAS G12D (P01116 1-188 isoform P01116-2 G12D): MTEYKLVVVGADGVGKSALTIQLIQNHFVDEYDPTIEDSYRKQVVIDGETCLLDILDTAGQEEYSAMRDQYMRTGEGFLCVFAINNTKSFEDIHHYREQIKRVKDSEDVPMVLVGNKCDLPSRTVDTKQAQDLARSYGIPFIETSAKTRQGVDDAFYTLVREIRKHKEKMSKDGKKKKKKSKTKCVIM

Row | Compound | IC50 (KRAS G12D) [nM] | IC50 (KRAS WT) [nM] | IC50 [1] [nM] | IC50 [2] [nM] | IC50 [3] [nM]
1 | Cc1c(F)c(N)cc(-c2nc3c4c(nc(OC[C@H]5CC[C@@H]6C(=O)N(C)CCN56)nc4c2F)N2C[C@H]4CC[C@H](N4)[C@H]2[C@H](C)O3)c1C(F)(F)F (relative stereo) [Compound 123, 6-((((5S,5aS,6S,9R)-2-(5-Amino-4-fluoro-3-methyl-2-(trifluoromethyl)phenyl)-1-fluoro-5-methyl-5a,6,7,8,9,10-hexahydro-5H-4-oxa-3,10a,11,13,14-pentaaza-6,9-methanonaphtho[1,8-ab]heptalen-12-yl)oxy)methyl)-2-methylhexahydropyrrolo[1,2-a]pyrazin-1(2H)-one] | 0.7 | 181 | 63 | 13900 | –
2 | C[C@@H]1Oc2nc(-c3cc(N)cc(F)c3C(F)(F)F)c(F)c3nc(OC[C@H]4CC[C@@H]5COC(C)(C)CN45)nc(c23)N2C[C@H]3CC[C@H](N3)[C@@H]12 (relative stereo) [Compound 125, 3-((5S,5aS,6S,9R)-12-((3,3-dimethylhexahydro-1H-pyrrolo[2,1-c][1,4]oxazin-6-yl)methoxy)-1-fluoro-5-methyl-5a,6,7,8,9,10-hexahydro-5H-4-oxa-3,10a,11,13,14-pentaaza-6,9-methanonaphtho[1,8-ab]heptalen-2-yl)-5-fluoro-4-(trifluoromethyl)aniline] | 0.23 | 14.7 | 2.14 | 1220 | 10.2

Reference: US12338256B2, “Aza-tetracyclic oxazepine compounds and uses thereof” (Genentech, Inc., priority 2022, dated 2025)
